Literature values in patent US11439626B2 (Icahn School of Medicine at Mount Sinai, priority 2019, dated 2022).
Where two headings read alike, the source gives them in different places.

Key:
[1] = for % Abs: 100 mg dose
[2] = system: patients with traumatic spinal cord injuries; conditions: cervical injuries, 90 days post-injury
[3] = not given; remark: listed apart in the source

## Nc1nc2ccc(OC(F)(F)F)cc2s1 [riluzole, 2-Amino-6-(trifluoromethoxy)benzothiazole]
[1]; 100 mg BID treatment arm, reported by Le Liboux et al.
  Cmin: ~40 ng/mL
[1]; Fasted (observed)
  % Abs: 100%
[1]; Fed (observed)
  % Abs: 80%
human, in vivo
  dose recovered in the urine: 90%
  dose recovered in the urine as glucuronides: 85%
  dose recovered in the urine as unchanged riluzole: 2%
  fecal excretion of administered dose: 5%
Repeated twice daily dosing
  accumulation: approximately 2 fold
[2]
  motor outcomes: improved motor outcomes
[3]; 50 mg twice daily, non-smoking males, predicted profile (Bruno et al.)
  trough concentrations: ~0.03 µg/mL
[3]; error model parameter (SIGMA)
  Proportional error: 0.0697
[3]; variability parameter (ETA)
  V/F Inter-occasion variability: 0.111
